# Laboratory results reported in US20180312473A1, “PHENAZINE DERIVATIVES AS ANTIMICROBIAL AGENTS” (priority 2015, published 2018).
# Like-named read-outs stand apart in the source and are kept apart here.
# How the values were obtained:
# [1] = Spectrophotometric determination of dissociation constants (pKa); format: physicochemical; settings: UV-vis at varying pH, 1:1 water:methanol buffers
# Protocol: Dissociation constants (pKa) for select analogues were determined by implementing UV-vis spectroscopy at varying pH values. Buffers were prepared using potassium phosphate monobasic (KH2PO4) and sodium phosphate dibasic (Na2HPO4) in a 1:1 solution of water:methanol to achieve a pH range of 3.78 to 10.94. Compounds were added from 10 mM stock solutions in dimethyl sulfoxide (12.5 μL) to 987.5 μL of each buffer to yield a final compound concentration of 125 μM. Full spectral scans were performed for each evaluated analogue at pH 3.78 and pH 10.94 from 300 to 800 nm to determine λmax values for the protonated phenol (HA; e.g., HP 2 below) and the deprotonated phenolate species (A^−; e.g., conjugate base of HP 2 below). The change in absorption at each determined λmax in relation to pH was then monitored in each buffer and then plotted as absorbance versus pH for each species. The pKa was first estimated by determining the pH of the point of intersection of the two linear curves as shown. The visual estimation was confirmed by plotting pH versus log [A^−/HA]. The resulting plot yielded a linear regression line with a Y-intercept corresponding to a calculated pKa value.
# [2] = test system: Enterococcus faecium (ATCC 700221), VRE; experiment: MIC assay (broth microdilution, CLSI); format: cell-based
# in vitro = format: cell-based; settings: human
# HeLa cells = experiment: in vitro; format: cell-based; settings: human, 24 h
# human red blood cells = experiment: Hemolysis assay with red blood cells; settings: human, 1 h, 200 μM, pH 7.2
# Method in brief: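 Washed human red blood cells exposed to compounds added from DMSO stocks, 1 h at 37° C.; supernatant OD read at 405 nm after centrifugation. % hemolysis calculated relative to DMSO (0%) and Triton X (100%) controls, from three independent experiments.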
# [3] = test system: MRSA-2 planktonic cells and biofilms; experiment: Calgary Biofilm Device (CBD) assay, MBC/MBEC; format: cell-based, Staphylococcus aureus; settings: Staphylococcus aureus, MRSA
# [4] = test system: MRSE (S. epidermidis ATCC 35984) planktonic cells and biofilms; experiment: Calgary Biofilm Device (CBD) assay, MBC/MBEC; format: cell-based, Staphylococcus epidermidis; settings: Staphylococcus epidermidis; Table 8; read-out: MRSE 35984 MBC
# [5] = test system: VRE (E. faecium ATCC 700221) planktonic cells and biofilms; experiment: Calgary Biofilm Device (CBD) assay, MBC/MBEC; format: cell-based, Enterococcus faecium; settings: Enterococcus; Table 8; c lowest concentration tested; read-out: VRE 700221 MBC
# A. baumannii 19606 = experiment: MIC assay (broth microdilution, CLSI); format: cell-based, Acinetobacter baumannii; settings: Acinetobacter baumannii, 19606; read-out: A. baumannii 19606 MIC
# P. aeruginosa (PAO1) = experiment: MIC assay (broth microdilution, CLSI); format: cell-based; settings: Pseudomonas aeruginosa, PAO1; read-out: PAO1 MIC
# K. pneumoniae 13883 = experiment: MIC assay (broth microdilution, CLSI); format: cell-based, Klebsiella pneumoniae; settings: Klebsiella pneumoniae, 13883; read-out: K. pneumoniae 13883 MIC
# E. coli UAEC-1 = experiment: MIC assay (broth microdilution, CLSI); format: cell-based; settings: Escherichia coli, UAEC1; read-out: E. coli UAEC-1 MIC
# E. faecium 700221 (VRE) = experiment: MIC assay with Tiron or metal(II) cation co-treatment; format: cell-based, Enterococcus faecium; settings: Enterococcus faecium, VRE
# [6] = test system: methicillin-resistant S. aureus (MRSA) strains; experiment: MIC assay, values summarised over MRSA strains; format: cell-based, Staphylococcus aureus
# MRSA BAA-44 = experiment: MIC assay (broth microdilution, CLSI); settings: Staphylococcus aureus, read-out: MIC, MRSA BAA-44
# [7] = test system: MRSA BAA-1707 planktonic cells and biofilms; experiment: Calgary Biofilm Device (CBD) assay, MBC/MBEC; settings: Staphylococcus aureus, read-out: MRSA BAA-1707 MBC
# [8] = test system: MRSA BAA-44 planktonic cells and biofilms; experiment: Calgary Biofilm Device (CBD) assay, MBC/MBEC; settings: Staphylococcus aureus, read-out: MRSA BAA-44 MBC
compound,measurement,setting,value
"O=[N+]([O-])c1ccc(O)cc1 [4-nitrophenol, reference compound]",pKa,[1],7.62
"Oc1c(Br)cc(I)c2nc3ccccc3nc12 [Compound 8, 2-Bromo-4-iodo-1-hydroxyphenazine]",MIC,"[2]; Enterococcus faecium, Table 2A, read-out: MIC, Enterococcus faecium (ATCC 700221)",6.25 µM
same,MIC,"[2]; Table 7, b lowest concentration tested, read-out: MIC, VRE 700221",6.25 µM
same,IC50 at 24 h,in vitro,> 100 µM
same,IC50,HeLa cells,> 100 µM
same,% Hemolysis (200 μM),human red blood cells,2.9%
same,% Hemolysis at 200 μM,human red blood cells,2.9%
same,MBC,"[3]; Table 4, read-out: MBC, MRSA-2",31.3 µM
same,MBC,"[3]; Table 8, a/b 2-/4-fold range in independent experiments, read-out: MRSA-2 MBC",31.3 µM
same,MBC,[4],11.7 µM
same,MBC,[5],3 µM
same,MIC,A. baumannii 19606,50 µM
same,MIC,P. aeruginosa (PAO1),> 100 µM
same,MIC,K. pneumoniae 13883,> 100 µM
same,MIC,E. coli UAEC-1,> 100 µM
same,MIC,"E. faecium 700221 (VRE); E. faecium 700221, 200 μM CuSO4, read-out: MIC with Cu^2+",3.13 µM
same,MIC,"E. faecium 700221 (VRE); E. faecium 700221, 1 mM Tiron, read-out: MIC with Tiron",3.13 µM
same,MIC,"E. faecium 700221 (VRE); E. faecium 700221, no additive, read-out: MIC",3.13 µM
same,growth inhibition activity against at least one MRSA strain,[6],sub-micromolar
same,melting point,,186 to 188 °C
same,MIC,MRSA BAA-44,1.17 µM
same,MBC,[7],23.5 µM
same,MBC,[8],46.9 µM
